How the values were obtained:
[1] = target: T1, h5-HT2A (Homo sapiens, UniProt P28223); test: Antagonism of 5-HT induced Ca2+ flux activation; type: cell-based; settings: FIG. 1D
T1 construct: expressed in transfected cells
Procedure: (§1) (A). DOI, a hallucinogen and 5-HT2A agonist, was administered IP 10 min after SC administration of vehicle or test drug. A and then HTR activity was assessed for 30 minutes. *p<0.001, significant difference vs. vehicle (B). Vehicle or the NMDA receptor antagonist PCP (5 mg/kg) was injected IP 10 min after SC administration of vehicle or 25N-NB1-Nap (16), and then the mice were placed in the test chambers 10 min later for a 60-min assessment of locomotor activity. (C). […] Mice were treated with vehicle or M100907 (0.03 mg/kg SC) 10 min prior to vehicle or PCP (5 mg/kg IP): animals were placed in the test chambers 10 min after treatment with PCP. Animals were tested for 60 min. *p<0.01 vs. vehicle: ^#p<0.01 vs. PCP alone.
Calcium flux was measured using stable-expressing 5-HT2 Flp-In 293 T-Rex Tetracycline inducible system described previously (Investigation of the Structure-Activity Relationships of Psilocy bin Analogues, ACS Pharmacol. Transl. Sci. 2020, Publication Date: Dec. 14, 2020, https://doi.org/10.1021/acsptsci.0c00176). […] After dye load, cells were allowed to equilibrate to room temperature for 15 minutes, and then placed in a FLIPR^TETRA fluorescence imaging plate reader (Molecular Devices). Fluorescence for the FLIPR^TETRA were programmed to read baseline fluorescence for 10 s (1 read/s), and afterward 5 μl of drug per well was added and read for a total of 5-10 min (1 read/s). […]

[2] = tested on: male C57BL/6J mice; test: Tolerance: DOI-induced HTR after 5 days repeated treatment; type: in vivo, mouse; settings: 5 days SC: 25N-N1-Nap 20, DOI 10, pimavanserin 1 mg/kg/day
Procedure: The mice were allowed to recover from the magnet implantation surgeries for at least 1 week prior to behavioral testing. HTR experiments were conducted in a well-lit room, and the mice were allowed to habituate to the room for at least 1 h prior to testing. Head twitches was assessed in a 12-cm diameter glass cylinder surrounded by a magnetometer coil. Coil voltage was low-pass filtered (2 kHz), amplified, and digitized (20-kHz sampling rate) using a Powerlab/8SP with LabChart v 7.3.2 (ADInstruments, Colorado Springs, CO, USA). […] HTR counts were analyzed using one-way ANOVAs. Dunnett's test was used for post hoc comparisons.

[3] = tested on: mice; test: PCP-induced locomotor hyperactivity; type: in vivo, mouse
Procedure: as §1
Male C57BL/6J mice (6-8 weeks old) from Jackson Labs (Bar Harbor, ME, USA) were used for the behavioral experiments. The mice were housed on a reversed light-dark cycle (lights on at 1900 h, off at 0700 h) in an AAAC-approved vivarium at the University of California San Diego. Mice were housed up to four per cage in a climate-controlled room and with food and water provided ad libitum except during behavioral testing. Testing was performed between 1000 and 1800 h (during the dark phase of the light-dark cycle). The studies were conducted in accordance with National Institutes Health (NIH) guidelines and were approved by the University of California San Diego Institutional Animal Care and Use Committee.
Edelfosine, DOI, R—(−)-DOI, and PCP were injected IP (5 mL/kg): 25N—NB and its derivatives were injected SC (5 mL/kg or 10 mL/kg): YM-254,890 was injected into the lateral ventricle (2 μL) over 1 min.
The mouse behavioral pattern monitor (BPM) was used to assess locomotor activity. Each mouse BPM chamber (San Diego Instruments, San Diego, CA, USA) is a transparent Plexiglas box with an opaque 30×60 cm floor, enclosed in a ventilated isolation box. The position of the mouse in x.y coordinates is recorded by a grid of 12×24 infrared photobeams located 1 cm above the floor. A second row of 16 photobeams (parallel to the long axis of the chamber, located 2.5 cm above the floor) is used to detect rearing behavior. Holepoking behavior is detected by 11 1.4-cm holes that are situated in the walls (3 holes in each long wall, 2 holes in each short wall) and the floor ([…]); each hole is equipped with an infrared photobeam. The status of each photobeam is sampled every 55 ms and recorded for offline analysis. Locomotor activity was quantified as distance traveled, which was analyzed in 20-min blocks using a three-way ANOVA, with pretreatment and treatment as between subject variables and time as a within-subject variable. Tukey's studentized range method was used for post hoc comparisons.

[4] = target: 5-HT2A (Homo sapiens, UniProt P28223); test: [3H]-ketanserin displacement, 5-HT2A membranes; type: binding; parameters: ES-313-M400UA (membranes); host or cells: CHO-K1
Sequence of 5-HT2A (P28223 whole entry): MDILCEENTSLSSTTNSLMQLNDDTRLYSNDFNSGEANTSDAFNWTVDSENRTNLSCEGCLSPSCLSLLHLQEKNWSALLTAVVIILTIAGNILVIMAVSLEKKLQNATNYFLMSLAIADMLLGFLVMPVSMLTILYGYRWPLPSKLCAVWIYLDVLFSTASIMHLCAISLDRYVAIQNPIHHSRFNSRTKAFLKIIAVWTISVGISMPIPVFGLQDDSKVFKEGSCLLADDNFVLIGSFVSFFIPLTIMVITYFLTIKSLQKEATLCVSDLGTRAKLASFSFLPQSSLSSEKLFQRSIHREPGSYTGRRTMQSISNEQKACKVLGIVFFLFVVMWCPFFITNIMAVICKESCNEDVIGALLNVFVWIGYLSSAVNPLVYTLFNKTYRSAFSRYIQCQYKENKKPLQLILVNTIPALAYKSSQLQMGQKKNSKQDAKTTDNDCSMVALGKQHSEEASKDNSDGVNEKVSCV

[5] = tested on: humans; settings: intranasal or sublingual routes; cited from earlier work

T1 sequence (P28223 whole entry): as above

Row | Compound | Antagonism of 5-HT induced h5-HT2A Ca2+ flux activation [1] | Ability of DOI (1 mg/kg IP) to induce the HTR after repeated daily treatment [2] | Effect on baseline locomotor activity ([3]; 3 mg/kg SC) | Effect on PCP-induced locomotor hyperactivity ([3]; PCP 5 mg/kg IP, 25N-N1-Nap 3 mg/kg SC, M100907 0.03 mg/kg SC) | Ki [4] [nM] | Active dose in humans [5] [mg]
1 | COc1cc([N+](=O)[O-])c(OC)cc1CCNCc1ccccc1-c1ccccc1 [25N-NBPh (17), ({[1,1′-biphenyl]-2-yl}methyl)[2-(2,5-dimethoxy-4-nitrophenyl)ethyl]amine] | Antagonism |  |  |  |  | 
2 | COc1cc([N+](=O)[O-])c(OC)cc1CCNCc1cccc2ccccc12 [25N-N-1-Nap (16), [2-(2,5-dimethoxy-4-nitrophenyl)ethyl][(naphthalen-1-yl)methyl]amine] | Antagonism | reduced significantly | had no effect | antagonized | 4.27 | 
3 | COc1cc([N+](=O)[O-])c(OC)cc1CCNCc1ccccc1OC [25N-NBOMe (4), [2-(2,5-dimethoxy-4-nitrophenyl)ethyl] [(2-methoxyphenyl)methyl]amine] |  |  |  |  | 1.41 | 0.3 to 0.8
